Laboratory results as given in US20260101898A1, “SULFONAMIDE COMPOUND AND HARMFUL-ARTHROPOD CONTROLLING COMPOSITION CONTAINING SAME” (SUMITOMO CHEMICAL COMPANY, LIMITED, priority 2022, published 2026).

Columns and labels:
Assay type in all cases: in vivo
[1] = system: diamondback moth (Plutella xylostella); assay: Test Method 4: sprayed cabbage seedling, second-instar larvae of diamondback moth; details: 120 h, spray 20 mL/seedling, after 5 days
Method: (§1) Each test compound is made to a formulation according to a similar method to that described in the Formulation Example 1, and thereto is added water containing 0.03 v/v % of Shindain (registered trademark) to prepare a diluted solution containing a prescribed concentration of the test compound.
(§2) Cabbage (Brassicae oleracea) seedling (on the developmental stage of the second to third true leaf) is planted in a container, and the diluted solutions are sprayed to the seedling at a ratio of 20 mL/seedling. Thereafter, the aerial part of the seedling is cut out and then is installed into a container in which a filter paper is placed at the bottom of the container. Five of second-instar larvae of diamondback moth (Plutella xylostella) are released into the container. After 5 days, the number of the surviving insects is counted, and the mortality of insects is calculated by the following equation.

[2] = system: diamondback moth (Plutella xylostella); assay: Test Method 10: sprayed cabbage seedling, third-instar larvae of diamondback moth (formulation per Formulation Example 5); details: 120 h, spray 20 mL/seedling, after 5 days
Method: (§3) Each test compound is made to a formulation according to a similar method to that described in the Formulation Example 5, and thereto is added water containing 0.03 v/v % of Shindain (registered trademark) to prepare a diluted solution containing a prescribed concentration of the test compound.
(§4) Cabbage (Brassicae oleracea) seedling (on the developmental stage of the third to fourth true leaf) is planted in a container, and the diluted solutions are sprayed to the seedling at a ratio of 20 mL/seedling. Thereafter, ten of third-instar larvae of diamondback moth (Plutella xylostella) are released. After 5 days, the number of the surviving insects is counted, and the mortality of insects is calculated by the following equation.

[3] = system: cotton aphids (Aphis gossypii); assay: Test Method 2: soil drench of cucumber seedling, cotton aphids released after 7 days; details: drench 5 mL/seedling, examined after 6 days
Method: Each test compound is made to a formulation according to a similar method to that described in the Formulation Example 5, and thereto is added water to prepare a diluted solution containing a prescribed concentration of the test compound. Cucumber (Cucumis sativus) seedling (on the developmental stage of the second true leaf) is planted in a container, and the diluted solutions are drenched to the bottom of the seedling at a ratio of 5 mL/seedling. After 7 days, approximately 30 cotton aphids (Aphis gossypii) (all developmental stages of life) are released onto the leaf of the seedling. After 6 days, the number of the surviving insects is examined and the controlling value is calculated by the following equation. [formula] wherein the symbols in the formula represent the following descriptions. • Cb: Number of the test insects in untreated group; • Cai: Number of the surviving insects at the time of the investigation in untreated group; • Tb: Number of the test insects in treated group; • Tai: Number of the surviving insects at the time of the investigation in treated group; Here the “untreated group” represents a group where the similar treatment procedure to that of the treated group except not using the test compound is done.

[4] = system: common cutworm (Spodoptera litura); assay: Test Method 3: sprayed cabbage seedling, second-instar larvae of common cutworm; details: 120 h, spray 20 mL/seedling, after 5 days
Method: as §1
as §2, with “common cutworm (Spodoptera litura)” for “diamondback moth (Plutella xylostella)”

[5] = system: common cutworm (Spodoptera litura); assay: Test Method 9: sprayed cabbage seedling, third-instar larvae of common cutworm (formulation per Formulation Example 5); details: 144 h, spray 20 mL/seedling, after 6 days
Method: as §3
as §4, with “common cutworm (Spodoptera litura)” for “diamondback moth (Plutella xylostella)”, “6” for “5”

[6] = system: Western corn rootworm (Diabrotica virgifera virgifera); assay: Test Method 5: corn seedling dip, second-instar larvae of Western corn rootworm; details: 120 h, corn seedling immersed 30 seconds, after 5 days
Method: Each 1 mg of the test compounds is dissolved in 50 μL of a mixed solution consisting of 5% of polyoxyethylene sorbitan mono-cocoate and 95% of acetone by volume ratio. Thereto is added water containing 0.03% by volume of Shindain (registered trademark) to prepare a diluted solution containing a prescribed concentration of the test compound.
A young seedling of corn (Zea mays) is immersed into the diluted solution for 30 seconds. Thereafter, two seedlings are installed in a plastic petri dish ([…]), and 10 of second-instar larvae of Western corn rootworm (Diabrotica virgifera virgifera) are released into the dish. After 5 days, the number of the dead insects is counted, and the mortality of insects is calculated by the following equation.

[7] = system: German cockroach (Blattella germanica); assay: Test Method 6: coated glass vial, German cockroach male adults; details: 40 mg/m^2 coated vial, 3 days
Method: An acetone solution which is adjusted to 800 ppm of each test compound is poured into a 50 mL glass vial, and the test compound is coated uniformly on inner face of the vial so as to 40 mg/m^2 of the test compound treated, and the vial is then dried.
5 German cockroach (Blattella germanica) male adults are released into the treated vial, and the vial is then covered with lid. After the prescribed time, the state of the German cockroach is examined, and the mortality is calculated by the following equation.

[8] = system: housefly (Musca domestica); assay: Test Method 8: coated glass vial, housefly female adults; details: 40 mg/m^2 coated vial, 1 day
Method: An acetone solution which is adjusted to 800 ppm of each test compound is poured into a 20 mL glass vial, and the test compound is coated uniformly on inner face of the vial so as to 40 mg/m^2 of the test compound treated, and the vial is then dried.
5 housefly (Musca domestica) female adults are released into the treated vial, and the vial is then covered with lid. After the prescribed time, the state of the housefly is examined, and the mortality is calculated by the following equation.

| Structure (SMILES) | mortality at 500 ppm [1] [%] | mortality at 200 ppm [2] [%] | controlling value ([3]; 250 ppm) [%] | controlling value ([3]; 1000 ppm) [%] | mortality at 500 ppm [4] [%] | mortality at 200 ppm [5] [%] | mortality at 50 ppm [2] [%] | mortality at 200 ppm [6] [%] | mortality [7] [%] | mortality [8] [%] |
| --- | --- | --- | --- | --- | --- | --- | --- | --- | --- | --- |
| CN(C)S(=O)(=O)c1cc(Br)cnc1-n1nc2ccc(C(F)(F)F)cn2c1=O [Present compound 1] | ≥ 80 | ≥ 80 |  |  |  |  |  |  |  |  |
| CN(C)S(=O)(=O)c1c(-n2nc3ccc(C(F)(F)F)cn3c2=O)nc2ccc(Br)cn12 [Present compound 2] | ≥ 80 | ≥ 80 | 100 | 100 | ≥ 80 | ≥ 80 | ≥ 80 |  |  |  |
| CNS(=O)(=O)c1c(-c2nc3cc(C(F)(F)F)cnc3[nH]2)nc2ccc(C(F)(F)F)cn12 [Present compound 3] | ≥ 80 | ≥ 80 |  |  | ≥ 80 | ≥ 80 | ≥ 80 | 100 | 100 | 100 |
